Patent US20090222217A1, “Method of calculating environment risk of a chemical in soil” (AMSTED Industries Inc., priority 2008, published 2009)

How the values were obtained:
[1] = sand, Foc 0.0003 mg/mg; Kd=Foc×Koc
Procedure: To obtain a value to represent the mobility of each compound, two variables are used: Henry's Law constant (H), which focuses on the physical chemistry of the chemical and the retardation factor (R), which focuses on the physical and chemical characteristics of the geological environment. The retardation factor was calculated by first calculating the distribution coefficient using Equation 1.
Values for the organic carbon partition coefficient can be obtained from location-specific testing of soil or from various published sources. And the fraction of organic carbon in soil can be obtained from location-specific testing of soil or from various published sources.

[2] = sand, bulk density 1.8 g/cm^3, effective porosity 0.25
Procedure: Once the distribution coefficient is calculated, the Retardation Factor can be calculated using Equation 2.
where: R is the retardation factor; ρb=bulk density of aquifer matrix (g/cm^3); Kd=distribution coefficient (mL·g^−1); η=effective porosity

[3] = M=(H)(R), sand
Text: With Henry's Law constant and the retardation factor in place, the mobility of a specific compound is expressed as Equation (4):
where: M=mobility; H=Henry's Law constant; R=retardation factor

[4] = more conservative of carcinogenic or chronic, oral or dermal pathway; published sources; cited from earlier work
[5] = published sources; cited from earlier work

SMILES: c1ccccc1 [benzene]
- Kd, distribution coefficient [1]: 0.0177 mL/g
- retardation factor (R) [2]: 1.13
- mobility factor (M) [3]: 0.2576
- toxicity value (T) [4]: 0.04 mg/kg-day^−1
- Henry's Law constant (H) [5]: 0.228 atm.·mol^−1·m^−3
